Results on five molecules are retold here after patent US20240374738A1, “BIFUNCTIONAL COMPOUND CAPABLE OF DEGRADING RECEPTOR TYROSINE KINASE AND APPLICATION THEREOF” (TAIBIDI PHARMACEUTICAL TECHNOLOGY (SHIJIAZHUANG) CO., LTD., priority 2023, published 2024).

Where a SMILES comes first, the peptide text is derived from it. The star is where a group is joined. Cbz = O=C(OCc1ccccc1)* A value given as a limit tells only on which side of the number the result lay.

Format in all cases: cell-based
The target of assay [1] is T1, DDR1 (Homo sapiens, UniProt Q08345). Put plainly: Competition inhibition experiments (DDR1 Western blot). Further details: endogenous in cells; host or cells: unnamed tumor cells. The following applies: TPD12140 100 nM plus different concentrations of competitor, 24 h. As for the experimental part:
Tumor cells were taken and inoculated into 6-well plates with 1×3×10^5 cells per well, and the cell growth status was observed on the next day. When the cells reached 80% confluence, TPD12140 (working concentration 100 nM) and different concentrations of cabozantinib or lenalidomide were added to the cell culture medium of the experimental group, and the control group was added with an equal volume of DMSO, and the incubation was continued for 24 h. Western Blot was performed to detect the expression of DDR1 protein (the same operation as above). The experiments were repeated three times or more, and the experimental data were statistically analyzed using GraphPad Prism software.
A general note: In western blotting, separated proteins are transferred to a membrane and probed.

For assay [2], the target named is T1, DDR1. Nature of the assay: Experiments with inhibitors of the ubiquitin-proteasome system (DDR1 Western blot). More on the design: endogenous in cells; host or cells: unnamed tumor cells. The settings on record: MG132 10 uM or MLN4924 1 uM for 6 hours, then TPD12140 100 nM 18 h. As for the experimental part:
Tumor cells were inoculated into 6-well plates with 1-3×10^5 cells per well, and the cell growth status was observed the next day. When the cells grew to about 80% confluence, the proteasome inhibitor MG132 (working concentration 10 uM) or the protein ubiquitination inhibitor MLN4924 (working concentration 1 uM) was added to the cell culture medium of the experimental group, and an equal volume of DMSO was added to the control group, and the incubation was continued for 6 hours. The medium in the well plates was discarded, washed twice with PBS, fresh medium was added, and compound TPD12140 (working concentration 100 nM) or an equal volume of DMSO was added to each group of cells, and the incubation was continued for 18 h. Western Blot was performed to detect the expression of DDR1 protein (same operation as above). The experiments were repeated three times or more, and the experimental data were statistically analyzed using GraphPad Prism software.

In assay [3] the target is T1, DDR1. Nature of the assay: Degradation of DDR1 in tumor cell MKN45 (Western blot). More on the design: The degradation activity of the compounds against DDR1 in the MKN45 cell line; endogenous in cells; host or cells: MKN45. The following applies: MKN-45, maximum degradation percentage, MKN45 cells, 24 hours. In a few lines:
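MKN45 gastric cancer cells were treated with compound dilutions for 24 h at a final DMSO of 0.5%; the 2 mM–200 nM series is the added solution, not the final concentration. DDR1 in lysates was quantified by Western blot, normalized to GAPDH and expressed relative to blank control, giving DC50 and Dmax.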

The next assay relates to MKN45. Nature of the assay: Growth inhibition of gastric cancer cells MKN45 (CCK-8). The settings on record: Homo sapiens, MKN-45, half inhibitory concentration, 72 hours. In a few lines: (§1)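 MKN45 or SNU5 cells in 96-well plates were treated with compound dilution series in triplicate for 72 h. Viability was read by CCK-8 (1 h, absorbance 450 nm), and inhibition was calculated against blank and medium-only controls. IC50 came from concentration-response curves.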

For a further assay, the system named is SNU5. Put plainly: Growth inhibition of gastric cancer cells SNU5 (CCK-8). The settings on record: Homo sapiens, SNU-5, half inhibitory concentration, 72 hours. The essentials: as §1

T1 sequence (Q08345 19-913): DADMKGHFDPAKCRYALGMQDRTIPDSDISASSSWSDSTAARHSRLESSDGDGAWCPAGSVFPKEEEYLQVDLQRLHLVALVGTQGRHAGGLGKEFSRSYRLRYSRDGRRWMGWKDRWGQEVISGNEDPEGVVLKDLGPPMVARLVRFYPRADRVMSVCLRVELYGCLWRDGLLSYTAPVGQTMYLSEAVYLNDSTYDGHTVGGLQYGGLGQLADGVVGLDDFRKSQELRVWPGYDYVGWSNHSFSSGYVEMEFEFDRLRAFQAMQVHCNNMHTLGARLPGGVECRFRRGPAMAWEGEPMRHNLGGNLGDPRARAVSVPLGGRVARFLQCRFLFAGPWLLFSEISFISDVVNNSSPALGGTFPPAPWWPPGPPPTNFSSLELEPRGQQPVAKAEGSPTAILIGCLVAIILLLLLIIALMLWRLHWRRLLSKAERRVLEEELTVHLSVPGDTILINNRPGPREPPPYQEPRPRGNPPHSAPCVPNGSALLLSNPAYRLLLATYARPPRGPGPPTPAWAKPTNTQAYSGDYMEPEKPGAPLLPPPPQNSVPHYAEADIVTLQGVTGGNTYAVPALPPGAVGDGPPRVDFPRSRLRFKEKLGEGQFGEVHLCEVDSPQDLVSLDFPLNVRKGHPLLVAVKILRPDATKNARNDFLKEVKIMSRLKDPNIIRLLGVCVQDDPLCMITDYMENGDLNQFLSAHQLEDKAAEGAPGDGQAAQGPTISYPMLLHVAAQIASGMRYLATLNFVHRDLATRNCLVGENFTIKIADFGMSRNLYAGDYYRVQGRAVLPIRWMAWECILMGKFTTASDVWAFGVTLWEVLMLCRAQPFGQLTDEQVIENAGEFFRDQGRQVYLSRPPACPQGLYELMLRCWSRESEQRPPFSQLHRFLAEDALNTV

Regarding `Nc1cccc2c1CN(C1CCC(=O)NC1=O)C2=O` (stereo not drawn) [lenalidomide], the “effect of competitor on degradation of DDR1 by TPD12140” value on DDR1 [1] is “inhibits the degradation of DDR1 by the compound”. On to `NS(=O)(=O)OC[C@@H]1C[C@@H](n2ccc3c(N[C@H]4CCc5ccccc54)ncnc32)C[C@@H]1O` [MLN4924], for which, on DDR1 [2], the “effect of inhibitor on degradation of DDR1 by TPD12140” value is on record as “can inhibit the degradation of the compounds”. For the molecule `CC(C)C[C@@H](C=O)NC(=O)[C@H](CC(C)C)NC(=O)[C@H](CC(C)C)NC(=O)OCc1ccccc1` [MG132] (Cbz-Leu-Leu-Leu-aldehyde), the “effect of inhibitor on degradation of DDR1 by TPD12140” value on DDR1 [2] was “can inhibit the degradation of the compounds”. By Dmax is commonly meant the greatest extent of degradation seen. A high value points to deep degradation. The IC50 is the point on the concentration scale where inhibition reaches its midpoint. A higher IC50 goes with weaker potency in that assay. With `COc1cc2c(Oc3ccc(NC(=O)C4(C(=O)Nc5ccc(F)cc5)CC4)cc3)ccnc2cc1NC(=O)CCN1CCC(CN2CCN(c3ccc4c(c3)C(=O)N(C3CCC(=O)NC3=O)C4=O)CC2)CC1` (stereo not drawn) [TPD5734], the Dmax at DDR1 [3] was in the range of 65 to 75%. Further, the half-inhibitory concentration (IC50) in the assay on MKN45 and in the assay on SNU5 was 100 to 500 nM throughout.

Regarding `O=C1CCC(N2Cc3cc(NC(=O)CN4C[C@@H]5C[C@H]4CN5CC4CCN(c5cc6nccc(Oc7ccc(NC(=O)C8(C(=O)Nc9ccc(F)cc9)CC8)cc7)c6cc5F)CC4)ccc3C2=O)C(=O)N1` (stereo partly drawn) [TPD12205], the Dmax on DDR1 [3] was in the range of 65 to 75%. In addition, the IC50 in the assay on MKN45 and in the assay on SNU5 was not above 100 nM in each case.
